Measured values as given in patent US20260256889A1, “Pharmaceutical formulations comprising a cyclodextrin” (Novo Nordisk A/S, priority 2021, published 2026).

Test: Optimal pH (chemical and physical stability across the pH range)
Assay type: physicochemical
Text: (§1) The person skilled in the art can easily find the amylin receptor agonist's optimal pH by testing its chemical and physical stability, in an aqueous solution essentially consisting of the amylin receptor agonist, a buffer and water for injection, across the pH range.
as §1, with “GLP-1” for “amylin”, “range. The physical stability of the GLP-1 receptor agonist may be a reflection of its isoelectric point, which may coincide with the pH where poorest physical stability might be expected.” for “range.”

## N^6.26-{18-[N-(17-carboxyheptadecanoyl)-L-γ-glutamyl]-10-oxo-3,6, 12, 15-tetraoxa-9,18-diazaoctadecanoyl}-[8-(2-amino-2-propanoic acid),34-L-arginine] human glucagon-like peptide 1 (7-37) [Semaglutide]
  pH at which optimally stable: 7.4
